# Key:
# Format in all cases: functional
# Parameters in all cases: scale not given here
# Schistosoma mansoni [1] = system: Schistosoma mansoni
# Schistosoma mansoni [2] = system: Schistosoma mansoni; remark: listed apart in the source
# Schistosoma mansoni [3] = system: Schistosoma mansoni; remark: listed apart in the source
Structure (SMILES),Toxicity (Schistosoma mansoni [1]),Toxicity (Schistosoma mansoni [2]),Toxicity (Schistosoma mansoni [3])
Cc1sc(NC(=O)c2ccccc2)c(C(c2cccs2)N2CCN(c3ccccc3)CC2)c1C (stereo unspecified),0,0,0
Cc1cccc(N2C(=O)C3C(C2=O)C2(c4ccccc4)C(=O)C3(c3ccccc3)C(c3ccc4c(c3)OCO4)=C2c2ccc3c(c2)OCO3)c1 (stereo unspecified),0,0,0
Cc1ccc(Cn2c(N3CCC(C(=O)NCc4cccs4)CC3)nc3ccccc32)cc1,0,0,0
FC(F)(F)c1cccc(CNC2CCN(CCc3ccccc3)CC2)c1,0,0,0
CCOc1cccc(C(=O)Nc2ccc(-c3nc4ccccc4[nH]3)cc2)c1,0,0,2
COc1ccc2sc(N(Cc3cccnc3)C(=O)c3ccc(C#N)cc3)nc2c1,0,0,0
CCCCCCn1c(=N)n(CC(O)COc2cccc(C)c2)c2ccccc21.Cl (stereo unspecified),4,4,4
CCOC(=O)C1=C(C)N=c2sc(=Cc3cc(Cl)ccc3O)c(=O)n2C1c1ccc(OC)cc1 (stereo unspecified),0,0,0
COc1ccc(NC(=O)C2c3ccccc3C(=O)N(CC(C)C)C2c2cccs2)cc1 (stereo unspecified),1,0,0
CCOc1cc(Br)c(C(C)NC(=O)c2cccc(OC)c2)cc1OCC (stereo unspecified),0,0,0
CCCCCCOC(=O)C1=C(C)NC(=O)NC1c1ccccc1F (stereo unspecified),0,0,0
Cc1cc(NC(=O)c2ccc(-c3ccccc3)cc2)no1,0,0,0
O=C(NCc1ccco1)C1CCN(S(=O)(=O)c2ccc(Cl)cc2)CC1,0,0,0
CCN(Cc1ccccc1)C1CCN(Cc2cc(Br)ccc2O)CC1.O=C(O)C(=O)O,0,0,0
O=C(Nc1ccc(N2CCN(Cc3ccccc3)CC2)cc1)c1cccs1.O=C(O)C(F)(F)F,0,0,0
Cc1nc2ccccc2c(O)c1CC=C(Cl)Cl,0,0,0
CSc1ccccc1C(=O)Nc1nc(-c2ccccn2)cs1,0,0,0
CCCCN(CCCC)S(=O)(=O)c1ccc(NC(=O)c2ccco2)cc1,0,0,0
CCOc1ccc(Nc2ccnc3cc(Cl)ccc23)cc1,2,0,0
O=C1c2ccccc2-c2nnc(-c3ccc(Br)cc3)cc21,0,0,0
CCc1ccc(Nc2cc(C)c3ccc(O)cc3n2)cc1.Cl,2,2,3
CC(C)(C)c1ccc(C2CC3=Nc4ccccc4N(C(=O)c4ccccc4Cl)C(c4ccc(F)cc4)C3=C(O)C2)cc1 (stereo unspecified),1,1,4
COc1ccc2c(c1OC)C(=O)N1c3ccccc3N=C(c3ccc(C)cc3)CC21 (stereo unspecified),0,0,0
FC(F)(F)c1cccc(Nc2nc(-c3ccccc3)nc3ncccc23)c1,0,0,0
CC(C)(C)c1ccc(O)c(CNC2CCCCC2)c1,0,0,0
O=C(Cc1ccccc1)NC(c1ccc(Cl)cc1)c1c(O)ccc2ccccc12 (stereo unspecified),2,1,2
Oc1ccc(Cl)cc1CNc1nc2ccccc2[nH]1,0,0,0
